Laboratory results published in patent publication US8633245B2, “PAI-1 inhibitor” (Institute of Medicinal Molecular Design, Inc., priority 2008, dated 2014).

Molecular target: T1, recombinant human PAI-1 (Homo sapiens, UniProt P05121)
T1 construct: purchased Molecular Innovations, Inc
Assay: Test Example 1: human PAI-1 inhibitory activity (tPA fluorogenic substrate, pH 7.5 Tris buffer)
Type: biochemical
Conditions: Tris buffer
Description: 50 mM Tris, 150 mM NaCl, 10 μg/ml BSA, 0.01% Tween80 (SIGMA-ALDRICH Corporation)

T1 sequence (P05121 24-402): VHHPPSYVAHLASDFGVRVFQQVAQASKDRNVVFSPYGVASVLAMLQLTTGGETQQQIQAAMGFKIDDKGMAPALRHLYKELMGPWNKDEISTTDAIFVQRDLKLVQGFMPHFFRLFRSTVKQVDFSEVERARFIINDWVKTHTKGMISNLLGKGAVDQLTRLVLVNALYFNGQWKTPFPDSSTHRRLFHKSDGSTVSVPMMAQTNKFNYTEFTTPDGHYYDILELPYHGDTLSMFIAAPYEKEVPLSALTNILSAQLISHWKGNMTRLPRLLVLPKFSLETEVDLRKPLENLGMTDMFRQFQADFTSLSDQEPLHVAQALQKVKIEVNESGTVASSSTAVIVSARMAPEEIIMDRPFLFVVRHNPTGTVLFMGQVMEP

| SMILES | Inhibition Rate of PAI-1 Activity (%) (Compound Concentration 10 μM) | Inhibition Rate of PAI-1 Activity (%) (Compound Concentration 25 μM) | Inhibition Rate of PAI-1 Activity (%) (Compound Concentration 5 μM) |
| --- | --- | --- | --- |
| O=C(O)/C=C/c1cc(-c2ccc(OC(F)(F)F)cc2)ccc1OCc1ccccc1 [Compound 24] | 11 | 64 |  |
| CC(C)(C)c1ccc(COc2ccc(-c3ccc(OC(F)(F)F)cc3)cc2/C=C/C(=O)O)cc1 [Compound 25] | 97 | 93 | 96 |
| CC(C)(C)c1ccc(COc2ccc(-c3cccc(C(=O)O)c3)cc2CCC(=O)O)cc1 [Compound 26] | 9 | 25 |  |
| O=C(O)CCc1cc(-c2ccc(OC(F)(F)F)cc2)ccc1OCc1ccc(Cl)cc1Cl [Compound 27] | 29 | 92 | 5 |
| O=C(O)CCc1cc(-c2ccc(OC(F)(F)F)cc2)ccc1OCc1ccc(-c2ccccc2)cc1 [Compound 29] | 56 | 88 | 21 |
| CC(C)(C)c1ccc(COc2ccc(-c3ccccc3)cc2/C=C/C(=O)O)cc1 [Compound 31] | 49 | 89 | 21 |
| CC(C)(C)c1ccc(COc2ccc(-c3ccccc3)cc2CCC(=O)O)cc1 [Compound 32] | 47 | 97 | 22 |
| CC(C)(C)c1ccc(COc2ccc(-c3ccc(F)cc3)cc2/C=C/C(=O)O)cc1 [Compound 33] | 53 | 96 | 23 |
| CC(C)(C)c1ccc(COc2ccc(-c3ccc(F)cc3)cc2CCC(=O)O)cc1 [Compound 34] | 53 | 99 | 24 |
| CC(C)(C)c1ccc(COc2ccc(-c3ccc(C(F)(F)F)cc3)cc2/C=C/C(=O)O)cc1 [Compound 35] | 57 | 95 | 28 |
| CC(C)(C)c1ccc(COc2ccc(-c3ccc(C(F)(F)F)cc3)cc2CCC(=O)O)cc1 [Compound 36] | 60 | 99 | 23 |
| COc1ccc(-c2ccc(OCc3ccc(C(C)(C)C)cc3)c(/C=C/C(=O)O)c2)cc1 [Compound 37] | 47 | 84 | 23 |
| COc1ccc(-c2ccc(OCc3ccc(C(C)(C)C)cc3)c(CCC(=O)O)c2)cc1 [Compound 38] | 34 | 93 | 14 |
| CC(C)(C)c1ccc(COc2ccc(-c3ccc(C(C)(C)C)cc3)cc2/C=C/C(=O)O)cc1 [Compound 39] | 56 | 94 | 25 |
| CC(C)(C)c1ccc(COc2ccc(-c3ccc(C(C)(C)C)cc3)cc2CCC(=O)O)cc1 [Compound 40] | 66 | >99 | 22 |
| CCCCc1ccc(-c2ccc(OCc3ccc(C(C)(C)C)cc3)c(CCC(=O)O)c2)cc1 [Compound 43] | 66 | 94 | 29 |
| CSc1ccc(-c2ccc(OCc3ccc(C(C)(C)C)cc3)c(/C=C/C(=O)O)c2)cc1 [Compound 44] | 25 | 21 | 16 |
| CC(C)(C)c1ccc(-c2ccc(OCc3ccccc3)c(/C=C/C(=O)O)c2)cc1 [Compound 47] | 47 | 91 | 22 |
| CC(C)(C)c1ccc(-c2ccc(OCc3ccccc3)c(CCC(=O)O)c2)cc1 [Compound 48] | 50 | 93 | 20 |

| SMILES | Inhibition Rate of PAI-1 Activity (%) (Compound Concentration 10 μM) | Inhibition Rate of PAI-1 Activity (%) (Compound Concentration 25 μM) | Inhibition Rate of PAI-1 Activity (%) (Compound Concentration 5 μM) |
| --- | --- | --- | --- |
| CC(C)(C)c1ccc(-c2ccc(OCc3ccc(OC(F)(F)F)cc3)c(/C=C/C(=O)O)c2)cc1 [Compound 51] | 69 | 94 | 32 |
| CC(C)(C)c1ccc(-c2ccc(OCc3ccc(OC(F)(F)F)cc3)c(CCC(=O)O)c2)cc1 [Compound 52] | 64 | 94 | 28 |
| O=C(O)CCc1cc(-c2ccccc2)ccc1OCc1ccc(OC(F)(F)F)cc1 [Compound 53] | 32 | 74 | 19 |
| COc1ccccc1-c1ccc(OCc2ccc(C(C)(C)C)cc2)c(/C=C/C(=O)O)c1 [Compound 55] | 46 | 95 | 21 |
| COc1ccccc1-c1ccc(OCc2ccc(C(C)(C)C)cc2)c(CCC(=O)O)c1 [Compound 56] | 47 | 91 | 22 |
| O=C(O)/C=C/c1cc(-c2ccc(OC(F)(F)F)cc2)ccc1OCc1cccc(C(F)(F)F)c1 [Compound 57] | 53 | 82 | 24 |
| O=C(O)CCc1cc(-c2ccc(OC(F)(F)F)cc2)ccc1OCc1cccc(C(F)(F)F)c1 [Compound 58] | 53 | 97 | 22 |
| Cc1cc(C)cc(COc2ccc(-c3ccc(OC(F)(F)F)cc3)cc2CCC(=O)O)c1 [Compound 59] | 53 | 77 | 25 |
| COc1ccc(COc2ccc(-c3ccc(OC(F)(F)F)cc3)cc2CCC(=O)O)cc1 [Compound 60] | 35 | 25 | 15 |
| Cc1ccc(COc2ccc(-c3ccc(OC(F)(F)F)cc3)cc2CCC(=O)O)cc1 [Compound 61] | 48 | 97 | 21 |
| O=C(O)CCc1cc(-c2ccc(OC(F)(F)F)cc2)ccc1OCc1ccc(OC(F)(F)F)cc1 [Compound 62] | 62 | 99 | 29 |
| CC(C)(C)c1ccc(COc2ccc(-c3cccc(OC(F)(F)F)c3)cc2/C=C/C(=O)O)cc1 [Compound 63] | 72 | 93 | 38 |
| CC(C)(C)c1ccc(COc2ccc(-c3cccc(OC(F)(F)F)c3)cc2CCC(=O)O)cc1 [Compound 64] | 74 | 95 | 49 |
| CC(C)(C)c1ccc(COc2ccc(-c3ccccc3OC(F)(F)F)cc2/C=C/C(=O)O)cc1 [Compound 65] | 72 | 93 | 42 |
| CC(C)(C)c1ccc(COc2ccc(-c3ccccc3OC(F)(F)F)cc2CCC(=O)O)cc1 [Compound 66] | 80 | >99 | 52 |
| CC(C)(C)c1ccc(-c2ccc(OCc3ccccc3OC(F)(F)F)c(CCC(=O)O)c2)cc1 [Compound 67] | 70 | 94 | 37 |
| CC(C)(C)c1ccc(-c2ccc(OCc3cccc(OC(F)(F)F)c3)c(CCC(=O)O)c2)cc1 [Compound 68] | 74 | 95 | 40 |
| CC(C)(C)c1ccc(-c2ccc(OCc3ccc(C(F)(F)F)cc3)c(CCC(=O)O)c2)cc1 [Compound 70] | 71 | 95 | 47 |
| CCCCc1ccc(COc2ccc(-c3ccc(C(C)(C)C)cc3)cc2CCC(=O)O)cc1 [Compound 71] | 80 | 93 | 51 |
